Experiment [1] relates to adjuvant-induced arthritis in rats (paw volume). Put plainly: Established Adjuvant-Induced Arthritis in Rats. The class given is in vivo, Charles River Lewis male rats. Particulars: for ED50: Rattus norvegicus, read-out: Adjuvant Arthritic ED50; for percent reduction in paw volume at the indicated dose: at 45 (mg/kg).
Experiment [2] has as its system phenylquinone-induced writhing in mice. Put plainly: Phenylquinone Writhing Test. The class given is in vivo, female white mice. As to conditions: Mus musculus, read-out: Phenylquinone Writhing (PQW) ED50. On the procedure:
A test compound suspended in 1% methylcellulose was given orally to fasted (17-21 hours) female white mice, 5-20 animals per double blind test. Aqueous (0.01% phenyl-p-benzoquinone) phenylquinone, 0.20 ml per mouse, was injected intraperitoneally 6 minutes before observations were begun.
On the technique in general: Writhing tests count abdominal constrictions after an irritant is injected.

Setting [3] is: oral, rats, 7 daily doses, ED50% decrease from control paw volume (uninjected, left hind paw).
[4] abbreviates: oral, fasted female mice, effective analgesic dose for 50% of the mice.

Where two headings read alike, the source gives them in different places. A value given as a limit tells only on which side of the number the result lay.

The ED50 is the midpoint of the dose-response relation.

`CC(=O)Oc1ccccc1C(=O)O` [Aspirin]: the ED50 in experiment [1] (po) is 305 mg/kg.

Take `CC1=NC(C(F)(F)F)(C(F)(F)F)c2nc(-c3ccc(F)cc3)c(-c3ccc(F)cc3)n21` [Example 1, 2,3-bis(4-Fluorophenyl)-5-methyl-7,7-bis(trifluoromethyl)imidazo[1,5-a]imidazole]: the ED50 in experiment [1] (setting [3]) amounted to 6.5 mg/kg; in experiment [2] (po) it was 135 mg/kg.

Regarding `COc1ccc(-c2nc3n(c2-c2ccc(OC)cc2)C(C)=NC3(C(F)(F)F)C(F)(F)F)cc1` [Example 2, 2,3-bis(4-Methoxyphenyl)-5-methyl-7,7-bis(trifluoromethyl)imidazo[1,5-a]imidazole], in experiment [1] (oral, rats, 7 daily doses), the “percent reduction in paw volume at the indicated dose” value was found to be 31%. In experiment [2] (setting [4]), the median effective dose (ED50) is 21 mg/kg.

Regarding `CC1=NC(C(F)(F)F)(C(F)(F)F)c2nc(-c3ccc(C)cc3)c(-c3ccc(C)cc3)n21` [Example 3, 2,3-bis(4-Methylphenyl)-5-methyl-7,7-bis(trifluoromethyl)imidazo[1,5-a]imidazole], the “percent reduction in paw volume at the indicated dose” value in experiment [1] (oral, rats, 7 daily doses) stood at 44%. The ED50 in experiment [2] (setting [4]) was > 108 mg/kg.

Take `CC(C)Cc1ccc(C(C)C(=O)O)cc1` (stereo not shown) [Ibuprofen]: the median effective dose (ED50) in experiment [1] (setting [3]) is 100 mg/kg; in experiment [2] (setting [4]), 10 mg/kg.

As to `COc1ccc2c(c1)c(CC(=O)O)c(C)n2C(=O)c1ccc(Cl)cc1` [Indomethacin], the ED50 in experiment [1] (po) turned out to be 0.3 mg/kg; in experiment [2] (po), 0.35 mg/kg.

On to `CCCCC1C(=O)N(c2ccccc2)N(c2ccccc2)C1=O` [Phenylbutazone], for which the ED50 was 10 mg/kg in experiment [1] (setting [3]) and 80 mg/kg in experiment [2] (setting [4]).
